In ChEMBL document CHEMBL1130371, “3-Substituted-4-hydroxy-7-chromanylacetic acid derivatives as antagonists of the leukotriene B4 (LTB4) receptor” (Bioorg Med Chem Lett, 1997):
One block for each compound: values may come before it.

Assays:
Leukotriene B4 receptor = Leukotriene B4 receptor (Homo sapiens, UniProt Q9NPC1+Q15722); assay: Inhibition of LTB4 receptor induced chemotaxis of isolated human neutrophils; format: functional
[1] = target: Leukotriene B4 receptor (Cavia porcellus); assay: Inhibition of leukotriene B4 (LTB4) binding to guinea pig spleen
Homo sapiens [2] = organism: Homo sapiens; assay: Antagonistic activity was evaluated against LT B4 on human neutrophils; format: functional
Homo sapiens [3] = organism: Homo sapiens; assay: Antagonistic activity was evaluated against LT D4 on human neutrophils; format: functional
[4] = system: Leukotriene B4 receptor (Cavia porcellus); assay: Compound was evaluated for the inhibition of Leukotriene B4 (LTB4) receptor binding to guinea pig spleen derived receptor (GPS); IA means inactive
Homo sapiens [5] = organism: Homo sapiens; assay: Compound was evaluated for the inhibition of LTB4 receptor -induced chemotaxis of isolated human neutrophils; IA means inactive; format: functional

IC50 (Leukotriene B4 receptor): 5.7 µM
IC50 [1]: 2.3 µM
Structure (SMILES): CC(C)(C(=O)O)c1ccc2c(c1)OC[C@H](Cc1ccccc1)[C@H]2O (stereo in doubt; 7)

IC50 (Leukotriene B4 receptor): 5.4 µM
IC50 [1]: 4 µM
Structure (SMILES): CC(C)(C(=O)O)c1ccc2c(c1)OC[C@H](Cc1ccc(Cl)cc1)[C@H]2O

IC50 (Leukotriene B4 receptor): 7.2 µM
IC50 [1]: 100 µM
Structure (SMILES): CC(C)c1ccc2c(c1)OC[C@H](Cc1ccccc1)[C@H]2O

IC50 (Leukotriene B4 receptor): 3.4 µM
IC50 [1]: 1.3 µM
Structure (SMILES): CC(C)(C(=O)O)c1ccc2c(c1)OC[C@H](Cc1ccccc1)[C@H]2O (stereo in doubt; 8)

IC50 (Leukotriene B4 receptor): 1.7 µM
IC50 [1]: 40 µM
Structure (SMILES): CC(C)(C(=O)N1CCCC1)c1ccc2c(c1)OC[C@H](Cc1ccccc1)[C@H]2O

IC50 (Leukotriene B4 receptor): 16.4 µM
IC50 [1]: 13 µM
IC50 (Homo sapiens [2]): 0.79 µM
IC50 (Homo sapiens [3]): > 100 µM
Structure (SMILES): CC(C(=O)O)c1ccc2c(c1)OC[C@H](Cc1ccccc1)[C@H]2O (stereo partly drawn)

IC50 (Leukotriene B4 receptor): 25 µM
IC50 [1]: 17 µM
Structure (SMILES): CC(C)(C(=O)O)c1ccc2c(c1)OC[C@H](Cc1ccccc1)C2

IC50 (Leukotriene B4 receptor): > 50 µM
IC50 [1]: 100 µM
Structure (SMILES): O[C@H]1c2ccccc2OC[C@@H]1Cc1ccccc1

IC50 (Leukotriene B4 receptor): 0.17 µM
IC50 [1]: 0.29 µM
Structure (SMILES): CCC(CC)(C(=O)O)c1ccc2c(c1)OC[C@H](Cc1ccccc1)[C@H]2O

IC50 (Leukotriene B4 receptor): 18.5 µM
IC50 [1]: 12 µM
Structure (SMILES): COc1ccc(C[C@H]2COc3cc(C(C)C(=O)O)ccc3[C@@H]2O)cc1 (stereo partly drawn)

IC50 [4]: Not Active
IC50 (Homo sapiens [5]): Not Active
Structure (SMILES): CC(C(=O)O)c1ccc2c(c1)[C@H](O)[C@@H](Cc1ccccc1)CO2 (stereo partly drawn)

IC50 (Leukotriene B4 receptor): 16 µM
IC50 [1]: 12 µM
Structure (SMILES): O=C(O)CCc1ccc2c(c1)OC[C@H](Cc1ccccc1)[C@H]2O

IC50 (Leukotriene B4 receptor): > 50 µM
IC50 [1]: > 100 µM
Structure (SMILES): OCCc1ccc2c(c1)OC[C@H](Cc1ccccc1)[C@H]2O

IC50 (Leukotriene B4 receptor): > 50 µM
IC50 [1]: > 100 µM
Structure (SMILES): OCc1ccc2c(c1)OC[C@H](Cc1ccccc1)[C@H]2O

IC50 (Leukotriene B4 receptor): 12.5 µM
IC50 [1]: 40 µM
Structure (SMILES): CC(C)(C(=O)O)c1ccc2c(c1)OC[C@H](Cc1ccccc1)[C@H]2O (stereo in doubt)

IC50 (Leukotriene B4 receptor): 1.5 µM
IC50 [1]: > 100 µM
Structure (SMILES): CNC(=O)C(C)(C)c1ccc2c(c1)OC[C@H](Cc1ccccc1)[C@H]2O

IC50 (Leukotriene B4 receptor): 12.2 µM
IC50 [1]: 53 µM
Structure (SMILES): COc1cccc(C[C@H]2COc3cc(C(C)C(=O)O)ccc3[C@@H]2O)c1 (stereo partly drawn)

IC50 (Leukotriene B4 receptor): 14 µM
IC50 [1]: 2.7 µM
Structure (SMILES): O=C(O)C1(c2ccc3c(c2)OC[C@H](Cc2ccccc2)[C@H]3O)CCC1

IC50 (Leukotriene B4 receptor): 34 µM
IC50 [1]: 30 µM
Structure (SMILES): O=C(O)Cc1ccc2c(c1)OC[C@H](Cc1ccccc1)[C@H]2O (stereo in doubt; 5)

IC50 (Leukotriene B4 receptor): 2.6 µM
IC50 [1]: 8 µM
Structure (SMILES): CC(C)(C(=O)O)c1ccc2c(c1)OC[C@H](Cc1ccccn1)[C@H]2O

More lines, now with the values behind:

Structure (SMILES): O=C(O)C1(c2ccc3c(c2)OC[C@H](Cc2ccccc2)[C@H]3O)CCCCC1 (stereo in doubt; 15)
IC50 (Leukotriene B4 receptor): 0.23 µM
IC50 [1]: 0.24 µM

Structure (SMILES): O=C(O)c1ccc2c(c1)OC[C@H](Cc1ccccc1)[C@H]2O
IC50 (Leukotriene B4 receptor): > 100 µM
IC50 [1]: 20 µM

Structure (SMILES): O=C(O)C1(c2ccc3c(c2)OC[C@H](Cc2ccc(F)cc2F)[C@H]3O)CCCC1
IC50 (Leukotriene B4 receptor): 1 µM
IC50 [1]: 2 µM

Structure (SMILES): O=C(O)C1(c2ccc3c(c2)OC[C@H](CCCc2ccccc2)[C@H]3O)CCCC1
IC50 (Leukotriene B4 receptor): 4.2 µM
IC50 [1]: 2.7 µM

Structure (SMILES): CC(C)(C(=O)O)c1ccc2c(c1)OC[C@H](Cc1ccc(F)cc1F)[C@H]2O
IC50 (Leukotriene B4 receptor): 6.2 µM
IC50 [1]: 8 µM

Structure (SMILES): O=C(O)C1(c2ccc3c(c2)OC[C@H](Cc2cccs2)[C@H]3O)CCCC1
IC50 (Leukotriene B4 receptor): 0.33 µM
IC50 [1]: 0.65 µM

Structure (SMILES): O=C(O)C1(c2ccc3c(c2)OC[C@H](Cc2ccccc2)[C@H]3O)CCCC1 (stereo in doubt)
IC50 (Leukotriene B4 receptor): 1.1 µM
IC50 [1]: 3.4 µM

Structure (SMILES): O=C(O)C1(c2ccc3c(c2)OC[C@H](Cc2ccccc2)[C@H]3O)CCCCC1 (stereo in doubt; 16)
IC50 (Leukotriene B4 receptor): 0.17 µM
IC50 [1]: 0.25 µM

Structure (SMILES): CC(C)(C(=O)O)c1ccc2c(c1)OC[C@H](CC1CCCCC1)[C@H]2O
IC50 (Leukotriene B4 receptor): 20 µM
IC50 [1]: 34 µM

Structure (SMILES): O=C(O)C1(c2ccc3c(c2)OC[C@H](Sc2ccccc2)[C@H]3O)CCCC1
IC50 (Leukotriene B4 receptor): 0.5 µM
IC50 [1]: 0.56 µM

Structure (SMILES): O=C(O)C1(c2ccc3c(c2)OC[C@H](Cc2ccccc2)[C@H]3O)CCCCC1 (stereo in doubt; 14)
IC50 (Leukotriene B4 receptor): 0.38 µM
IC50 [1]: 0.2 µM

Structure (SMILES): O=C(O)C1(c2ccc3c(c2)OC[C@H](Cc2ccccc2)[C@H]3O)CCCC1 (stereo in doubt; 11)
IC50 (Leukotriene B4 receptor): 0.16 µM
IC50 [1]: 0.32 µM

Structure (SMILES): O[C@H]1c2ccc(C3(C4N=NN=N4)CCCC3)cc2OC[C@@H]1C(c1ccccc1)C1CCCCC1 (stereo partly drawn)
IC50 (Leukotriene B4 receptor): 1.5 µM
IC50 [1]: 0.35 µM

Structure (SMILES): CC(C)(C(=O)O)c1ccc2c(c1)OC[C@H](Cc1cccc(F)c1)[C@H]2O
IC50 (Leukotriene B4 receptor): 9.4 µM
IC50 [1]: 6 µM

Structure (SMILES): O=C(O)C1(c2ccc3c(c2)OC[C@H](Cc2ccccc2)[C@H]3O)CCCC1 (stereo in doubt; 12)
IC50 (Leukotriene B4 receptor): 0.078 µM
IC50 [1]: 0.42 µM

Structure (SMILES): O=C(O)C1(c2ccc3c(c2)OC[C@H](CCc2ccc(-c4ccccc4)cc2)[C@H]3O)CCCC1
IC50 (Leukotriene B4 receptor): 5.8 µM
IC50 [1]: 3.2 µM

Structure (SMILES): O=C(O)Cc1ccc2c(c1)OC[C@H](Cc1ccccc1)[C@H]2O (stereo in doubt; 4)
IC50 (Leukotriene B4 receptor): 12 µM
IC50 [1]: 25 µM

Structure (SMILES): O=C(O)C1(c2ccc3c(c2)OC[C@H](Cc2ccc(C(F)(F)F)cc2)[C@H]3O)CCCC1
IC50 (Leukotriene B4 receptor): 6 µM
IC50 [1]: 12 µM

Structure (SMILES): O=C(O)C1(c2ccc3c(c2)OC[C@H](Cc2ccc4ccccc4n2)[C@H]3O)CCCC1
IC50 (Leukotriene B4 receptor): > 50 µM
IC50 [1]: 8.8 µM

Structure (SMILES): O=C(O)C1(c2ccc3c(c2)OC[C@H](CCc2ccccc2)[C@H]3O)CCCC1
IC50 (Leukotriene B4 receptor): 0.3 µM
IC50 [1]: 0.49 µM

Structure (SMILES): O=C(O)C1(c2ccc3c(c2)OC[C@H](C(c2ccccc2)c2ccccc2)[C@H]3O)CCCC1
IC50 (Leukotriene B4 receptor): 10 µM
IC50 [1]: 5.4 µM

Structure (SMILES): CC(C)(C(=O)O)c1ccc2c(c1)OC[C@H](Cc1ccccc1)[C@H]2O (stereo in doubt; 6)
IC50 (Leukotriene B4 receptor): 2.4 µM
IC50 [1]: 1.2 µM

Structure (SMILES): O=C(O)C1(c2ccc3c(c2)OC[C@H](Cc2ccccc2)[C@H]3O)CCCC1 (stereo in doubt; 13)
IC50 (Leukotriene B4 receptor): 0.098 µM
IC50 [1]: 0.29 µM
